Source: the supplement of paper PMC10307832

How the values were obtained:
Experiment in all cases: relative viability (nuclei count vs DMSO), 5 days (fraction); higher = more cells survive
17-AAG + Tozasertib = compound: C=CCNC1=C2C[C@@H](C)C[C@H](OC)[C@H](O)[C@@H](C)/C=C(\C)[C@H](OC(N)=O)[C@@H](OC)/C=C\C=C(/C)C(=O)NC(=CC1=O)C2=O [17-AAG] + Cc1cc(Nc2cc(N3CCN(C)CC3)nc(Sc3ccc(NC(=O)C4CC4)cc3)n2)n[nH]1 [Tozasertib] (partner 0.1 µM)
Summary of the method: (§1)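 A single step with final 0.05% Triton X-100, 1% formaldehyde and 1 ug/ml Hoechst fixed the cells and stained nuclei 5 days after treatment. Lung cancer cell lines in 1536-well plates had been treated by pin tool the day after seeding with one drug alone or a fixed anchor-drug dose plus five library-drug doses (not always all listed) in √10 steps, and nuclei were counted on 4× images. Relative viability is the ratio of nuclei in treated wells to nuclei in vehicle wells, taken as the median of duplicate plates.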

17-AAG + Crizotinib = compound: C=CCNC1=C2C[C@@H](C)C[C@H](OC)[C@H](O)[C@@H](C)/C=C(\C)[C@H](OC(N)=O)[C@@H](OC)/C=C\C=C(/C)C(=O)NC(=CC1=O)C2=O [17-AAG] + C[C@@H](Oc1cc(-c2cnn(C3CCNCC3)c2)cnc1N)c1c(Cl)ccc(F)c1Cl [Crizotinib] (partner 1 µM)
Summary of the method: as §1

17-AAG + Vorinostat = compound: C=CCNC1=C2C[C@@H](C)C[C@H](OC)[C@H](O)[C@@H](C)/C=C(\C)[C@H](OC(N)=O)[C@@H](OC)/C=C\C=C(/C)C(=O)NC(=CC1=O)C2=O [17-AAG] + O=C(CCCCCCC(=O)Nc1ccccc1)NO [Vorinostat] (partner 1 µM)
Summary of the method: as §1

17-AAG + Navitoclax = compound: C=CCNC1=C2C[C@@H](C)C[C@H](OC)[C@H](O)[C@@H](C)/C=C(\C)[C@H](OC(N)=O)[C@@H](OC)/C=C\C=C(/C)C(=O)NC(=CC1=O)C2=O [17-AAG] + CC1(C)CCC(c2ccc(Cl)cc2)=C(CN2CCN(c3ccc(C(=O)NS(=O)(=O)c4ccc(N[C@H](CCN5CCOCC5)CSc5ccccc5)c(S(=O)(=O)C(F)(F)F)c4)cc3)CC2)C1 [Navitoclax] (partner 0.5 µM)
Summary of the method: as §1

Cell Line	relative viability (17-AAG + Tozasertib; first compound 0.00128 µM)	relative viability (17-AAG + Tozasertib; first compound 0.004048 µM)	relative viability (17-AAG + Tozasertib; first compound 0.0128 µM)	relative viability (17-AAG + Tozasertib; first compound 0.04048 µM)	relative viability (17-AAG + Tozasertib; first compound 0.128 µM)	relative viability (17-AAG + Crizotinib; first compound 0.00128 µM)	relative viability (17-AAG + Crizotinib; first compound 0.004048 µM)	relative viability (17-AAG + Crizotinib; first compound 0.0128 µM)	relative viability (17-AAG + Crizotinib; first compound 0.04048 µM)	relative viability (17-AAG + Crizotinib; first compound 0.128 µM)	relative viability (17-AAG + Vorinostat; first compound 0.00128 µM)	relative viability (17-AAG + Vorinostat; first compound 0.004048 µM)	relative viability (17-AAG + Vorinostat; first compound 0.0128 µM)	relative viability (17-AAG + Vorinostat; first compound 0.04048 µM)	relative viability (17-AAG + Vorinostat; first compound 0.128 µM)	relative viability (17-AAG + Navitoclax; first compound 0.00128 µM)	relative viability (17-AAG + Navitoclax; first compound 0.004048 µM)	relative viability (17-AAG + Navitoclax; first compound 0.0128 µM)	relative viability (17-AAG + Navitoclax; first compound 0.04048 µM)	relative viability (17-AAG + Navitoclax; first compound 0.128 µM)
NCI-H2228	0.301	0.151	0.105	0.131	0.128	0.528	0.245	0.176	0.174	0.141	0.691	0.588	0.168	0.167	0.12	0.893	0.486	0.146	0.168	0.112
COR-L23	0.2	0.25	0.225	0.158	0.0795	0.725	0.614	0.749	0.339	0.0896	0.489	0.408	0.47	0.319	0.109	1.07	1.06	0.991	0.544	0.0992
NCI-H727	0.569	0.682	0.53	0.453	0.25	0.968	0.74	0.586	0.191	0.188	1.36	1.05	1.23	1.32	0.511	0.426	0.455	0.214	0.206	0.226
NCI-H1993	0.56	0.591	0.585	0.42	0.453	0.932	0.969	0.899	0.537	0.403	0.83	0.73	0.472	0.201	0.273	0.904	0.933	0.529	0.564	0.441
NCI-H1437	0.4	0.477	0.296	0.311	0.164	0.976	0.806	0.378	0.126	0.0903	0.83	0.77	0.731	0.328	0.235	1.11	0.939	0.936	0.162	0.132
NCI-H2347	0.564	0.518	0.507	0.278	0.303	0.747	0.791	0.738	0.486	0.317	0.569	0.557	0.524	0.329	0.379	0.908	0.737	0.74	0.441	0.245
201T	0.988	0.915	0.872	0.891	0.388	1.04	1.07	1.02	0.886	0.805	0.932	0.945	0.858	0.55	0.252	1.21	1.21	1.17	1.16	0.973
ChaGo-K-1	0.215	0.249	0.279	0.217	0.205	1.11	1.07	1.03	0.628	0.293	0.749	0.776	0.691	0.49	0.214	0.949	1.11	0.897	0.441	0.273
NCI-H1650	0.458	0.317	0.215	0.175	0.206	1.01	0.659	0.136	0.179	0.126	0.371	0.376	0.232	0.152	0.138	1.19	0.782	0.407	0.181	0.171
LOU-NH91	0.663	0.475	0.39	0.327	0.307	0.666	0.624	0.516	0.365	0.353	0.86	0.735	0.547	0.482	0.336	0.608	0.525	0.32	0.332	0.297
HOP-62	0.363	0.466	0.386	0.212	0.17	0.938	1.04	1.02	0.935	0.248	0.687	0.563	0.452	0.141	0.083	1.16	1.01	1.05	0.843	0.151
NCI-H1915	0.455	0.442	0.401	0.392	0.111	0.89	0.899	0.871	0.878	0.223	0.447	0.465	0.45	0.167	0.0637	0.763	0.754	0.797	0.771	0.409
NCI-H322M	0.478	0.443	0.337	0.316	0.325	0.811	0.92	0.979	0.65	0.442	0.987	1.15	0.569	0.383	0.482	1.15	1.18	1.26	0.573	0.564
NCI-H1651	0.778	0.667	0.612	0.302	0.14	0.828	0.82	0.828	0.827	0.571	0.538	0.536	0.545	0.578	0.492	1.05	0.882	1.01	0.214	0.148
PC-14	0.55	0.472	0.27	0.067	0.0544	0.944	0.855	0.732	0.176	0.124	0.683	0.464	0.0532	0.081	0.056	1.04	1.02	1.02	0.118	0.0935
